Test results from patent US4493839A, “1-Carbapenem-3-carboxylic esters as anti-inflammatory agents” (Merck & Co., Inc., priority 1982, dated 1985).

Target: T1, Human Polymorphonuclear Leukocyte Elastase (Homo sapiens, UniProt P08246)
T1 construct: Crude extract of human polymorphonuclear leukocytes (PMN) containing elastase activity; endogenous in cells; host or cells: human polymorphonuclear leukocytes (crude extract)
T1 sequence (P08246 30-247 limits assumed): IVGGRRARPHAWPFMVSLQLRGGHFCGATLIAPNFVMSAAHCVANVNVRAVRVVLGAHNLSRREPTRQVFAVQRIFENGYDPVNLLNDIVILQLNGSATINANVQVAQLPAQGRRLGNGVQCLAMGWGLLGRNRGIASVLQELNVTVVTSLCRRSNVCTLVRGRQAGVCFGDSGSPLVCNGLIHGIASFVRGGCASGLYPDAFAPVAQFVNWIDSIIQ
Test: Enzyme assay for the inhibition of human polymorphonuclear leukocyte elastase via hydrolysis of N-t-Boc-alanyl-alanyl-prolylalanine-p-nitroanilide
Format: biochemical
Conditions: measured within 2 minutes, crude PMN extract, 0.2 mM Boc-AAPAN, pH 7.5; for inhibition at 20 µg/mL: Conc. 20 μg/ml; for inhibition at 50 µg/mL: Conc. 50 μg/ml; for inhibition at 5 µg/mL: Conc. 5 μg/ml; for inhibition at 0.5 µg/mL: Conc. 0.5 μg/ml; for inhibition at 1 µg/mL: Conc. 1 μg/ml; for inhibition at 2 µg/mL: Conc. 2 μg/ml; for inhibition at 10 µg/mL: Conc. 10 μg/ml
Procedure: Protocol--Enzyme Assays for the Inhibition of Human Polymorphonuclear Leukocyte Elastase Via Hydrolysis of N-t-Boc-alanyl-alanyl-prolylalanine-p-nitroanilide
0.05M TES (N-tris[hydroxymethyl]methyl-2-amino-ethanesulfonic acid) Buffer, pH 7.5.
0.2 mM N-to-Boc-alanyl-alanyl-Prolyl-Alanine-p-nitroanilide (Boc-AAPAN).
To prepare substrate, the solid (m.w. 550) was first dissolved in 10.0 ml DMSO. Buffer at pH 7.5 was then added to a final volume of 100 ml.
Crude extract of human polymorphonuclear leukocytes (PMN) containing elastase activity.
Inhibitors (carbapenem esters) to be tested dissolved in DMSO just before use.
To 1.0 ml of 0.2 mM Boc-AAPAN in a cuvette, 0.01-0.1 ml of DMSO with or without inhibitor was added. After mixing, a measurement was taken at 410 mμ to detect any spontaneous hydrolysis due to presence of test compound. 0.05 Milliliters of PMN extract was then added and the ΔOD/min at 410 mμ was measured and recorded. Beckman model 35 spectrophotometer was used.
The elastase activity in the crude PMN extract may vary from one preparation to another. A control of each new batch is run, and the volume added in the assay procedure is adjusted according to activity.

Row | Compound | inhibition at 20 µg/mL [%] | inhibition at 50 µg/mL [%] | inhibition at 5 µg/mL [%] | inhibition at 0.5 µg/mL [%] | inhibition at 1 µg/mL [%] | inhibition at 2 µg/mL [%] | inhibition at 10 µg/mL [%]
1 | CC=C1C(=O)N2C(C(=O)OCc3ccc([N+](=O)[O-])cc3)=C(SCCN3C(=O)c4ccccc4C3=O)CC12 (stereo not shown) | 47 | 73 | – | – | – | – | –
2 | CC(O)C1C(=O)N2C(C(=O)OCc3ccc([N+](=O)[O-])cc3)=C(SCc3ccccc3)CC12 (stereo not shown) | 50 | 75 | – | – | – | – | –
3 | CC(O)C1C(=O)N2C(C(=O)OCc3ccc([N+](=O)[O-])cc3)=C(SCc3ccccn3)CC12 (stereo not shown) | 100 | – | 63 | – | – | – | –
4 | CC(O)C1C(=O)N2C(C(=O)OCc3ccc([N+](=O)[O-])cc3)=C(Sc3ccncc3)CC12 (stereo not shown) | 100 | – | 93 | 21 | 72 | – | –
5 | CC(O)C1C(=O)N2C(C(=O)OCc3ccc([N+](=O)[O-])cc3)=C(SCCO)CC12 (stereo not shown) | 84 | 95 | – | – | – | – | –
6 | CC(OC(=O)OCc1ccccc1[N+](=O)[O-])C1C(=O)N2C(C(=O)OCc3ccccc3[N+](=O)[O-])=C(c3ccc(CN=[N+]=[N-])cc3)CC12 (stereo not shown) | – | 79 | 74 | – | 59 | 66 | 76
7 | CC(NC(=O)OCc1ccccc1[N+](=O)[O-])C1C(=O)N2C(C(=O)OCc3ccccc3[N+](=O)[O-])=CCC12 (stereo not shown) | 72 | 82 | 23 | – | – | – | 57
8 | CC(OC(=O)OCc1ccccc1[N+](=O)[O-])C1C(=O)N2C(C(=O)OCc3ccccc3[N+](=O)[O-])=CCC12 (stereo not shown) | 88 | – | 85 | 27 | 46 | 78 | 88
9 | O=C(OCc1ccccc1)C1=C(SCc2ccccc2)CC2C(CO)C(=O)N12 (stereo not shown) [Benzyl] | – | 97 | 90 | – | 77 | – | 93
